Source: patent US9340590B2 (priority 2011, dated 2016)
Where two headings read alike, the source gives them in different places. Positions of bridges follow the written chain, without caps; N, C: chain ends. Non-standard residues stand in square brackets, D forms with d. Residues, ends and D or L forms follow the SMILES beside them. 1Nal = N[C@@H](Cc1cccc2ccccc12)C(=O)O

Legend:
hNav1.7 [1] = target: T1, hNav1.7 (Homo sapiens, UniProt Q15858); assay: cell-based; format: cell-based
hNav1.5 [2] = target: T2, hNav1.5 (Homo sapiens, UniProt Q14524); assay: cell-based
hNav1.3 [3] = target: T3, hNav1.3 (Homo sapiens, UniProt Q9NY46); assay: cell-based
hNav1.7 [4] = target: T1, hNav1.7; assay: cell-based
hNav1.3 [5] = target: T3, hNav1.3; assay: cell-based; format: cell-based; settings: Nav1.3 Use IC50
hNav1.5 [6] = target: T2, hNav1.5; assay: cell-based; remark: listed apart in the source
[7] = test system: locomotor activity in male CD-1 mice; settings: 5 mg/kg s.c.
[8] = IonWorks Quattro, clamped to −110 mV, depolarized to −10 mV, 5 min after compound, n=2, read-out: IWQ Use Nav1.5
[9] = IonWorks Quattro, clamped to −110 mV, depolarized to −10 mV, 5 min after compound, n=2, read-out: IWQ Use Nav1.3
[10] = IonWorks Quattro, clamped to −110 mV, depolarized to −10 mV, 5 min after compound, n=2, read-out: IWQ Use Nav1.7
[11] = later studies (FIGS. 99-110), 1-hour pre-treatment

T3 sequence (Q9NY46 whole entry, looked up): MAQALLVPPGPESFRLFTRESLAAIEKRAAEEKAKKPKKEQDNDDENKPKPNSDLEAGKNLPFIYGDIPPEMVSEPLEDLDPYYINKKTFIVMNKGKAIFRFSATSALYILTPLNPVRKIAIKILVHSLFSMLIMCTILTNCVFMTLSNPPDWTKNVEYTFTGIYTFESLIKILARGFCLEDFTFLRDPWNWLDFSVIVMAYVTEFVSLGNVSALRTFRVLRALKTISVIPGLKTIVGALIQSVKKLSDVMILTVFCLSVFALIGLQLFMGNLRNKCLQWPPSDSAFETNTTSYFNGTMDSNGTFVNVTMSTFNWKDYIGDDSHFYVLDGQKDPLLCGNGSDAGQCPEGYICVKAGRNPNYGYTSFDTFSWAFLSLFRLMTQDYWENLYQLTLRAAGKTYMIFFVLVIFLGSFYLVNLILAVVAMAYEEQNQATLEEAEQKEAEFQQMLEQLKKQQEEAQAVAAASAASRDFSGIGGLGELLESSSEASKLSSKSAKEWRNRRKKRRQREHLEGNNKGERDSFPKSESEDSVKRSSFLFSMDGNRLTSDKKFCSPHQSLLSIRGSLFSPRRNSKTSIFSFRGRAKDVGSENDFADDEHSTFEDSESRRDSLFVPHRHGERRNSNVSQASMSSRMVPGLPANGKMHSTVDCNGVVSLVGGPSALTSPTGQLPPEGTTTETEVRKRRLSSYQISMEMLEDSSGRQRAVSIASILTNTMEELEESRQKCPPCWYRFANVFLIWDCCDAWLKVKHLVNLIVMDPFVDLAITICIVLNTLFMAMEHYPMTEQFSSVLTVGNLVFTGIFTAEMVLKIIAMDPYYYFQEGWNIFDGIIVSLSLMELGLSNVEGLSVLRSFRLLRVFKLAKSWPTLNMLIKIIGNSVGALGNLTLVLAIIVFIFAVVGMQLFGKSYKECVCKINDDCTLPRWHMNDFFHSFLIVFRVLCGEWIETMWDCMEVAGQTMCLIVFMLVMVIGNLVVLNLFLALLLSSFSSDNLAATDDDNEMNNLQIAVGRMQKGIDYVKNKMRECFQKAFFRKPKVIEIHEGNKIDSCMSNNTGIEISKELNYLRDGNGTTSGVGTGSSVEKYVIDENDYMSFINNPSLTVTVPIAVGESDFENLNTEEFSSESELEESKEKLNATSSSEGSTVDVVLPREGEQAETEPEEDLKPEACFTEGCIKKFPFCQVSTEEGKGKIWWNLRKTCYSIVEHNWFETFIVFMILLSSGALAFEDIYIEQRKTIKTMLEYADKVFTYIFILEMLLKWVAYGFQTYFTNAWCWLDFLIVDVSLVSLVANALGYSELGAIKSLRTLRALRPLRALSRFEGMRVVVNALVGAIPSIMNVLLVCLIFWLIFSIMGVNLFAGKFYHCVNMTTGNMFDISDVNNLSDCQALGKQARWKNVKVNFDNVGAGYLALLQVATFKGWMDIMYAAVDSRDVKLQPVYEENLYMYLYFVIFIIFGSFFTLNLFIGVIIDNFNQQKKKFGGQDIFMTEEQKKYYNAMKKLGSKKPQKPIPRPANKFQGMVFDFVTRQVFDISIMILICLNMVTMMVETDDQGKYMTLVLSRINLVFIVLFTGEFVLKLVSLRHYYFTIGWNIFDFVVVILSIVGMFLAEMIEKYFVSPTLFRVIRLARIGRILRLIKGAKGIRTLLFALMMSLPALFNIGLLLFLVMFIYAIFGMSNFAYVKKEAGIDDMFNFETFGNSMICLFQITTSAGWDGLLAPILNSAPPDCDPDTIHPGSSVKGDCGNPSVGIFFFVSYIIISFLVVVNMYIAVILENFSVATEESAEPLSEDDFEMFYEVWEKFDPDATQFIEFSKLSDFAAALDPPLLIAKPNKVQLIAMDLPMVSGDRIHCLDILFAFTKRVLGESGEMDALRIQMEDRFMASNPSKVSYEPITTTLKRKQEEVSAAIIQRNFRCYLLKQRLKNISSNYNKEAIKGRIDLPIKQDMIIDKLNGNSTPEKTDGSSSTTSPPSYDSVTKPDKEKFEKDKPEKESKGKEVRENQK
T2 sequence (Q14524 whole entry, looked up): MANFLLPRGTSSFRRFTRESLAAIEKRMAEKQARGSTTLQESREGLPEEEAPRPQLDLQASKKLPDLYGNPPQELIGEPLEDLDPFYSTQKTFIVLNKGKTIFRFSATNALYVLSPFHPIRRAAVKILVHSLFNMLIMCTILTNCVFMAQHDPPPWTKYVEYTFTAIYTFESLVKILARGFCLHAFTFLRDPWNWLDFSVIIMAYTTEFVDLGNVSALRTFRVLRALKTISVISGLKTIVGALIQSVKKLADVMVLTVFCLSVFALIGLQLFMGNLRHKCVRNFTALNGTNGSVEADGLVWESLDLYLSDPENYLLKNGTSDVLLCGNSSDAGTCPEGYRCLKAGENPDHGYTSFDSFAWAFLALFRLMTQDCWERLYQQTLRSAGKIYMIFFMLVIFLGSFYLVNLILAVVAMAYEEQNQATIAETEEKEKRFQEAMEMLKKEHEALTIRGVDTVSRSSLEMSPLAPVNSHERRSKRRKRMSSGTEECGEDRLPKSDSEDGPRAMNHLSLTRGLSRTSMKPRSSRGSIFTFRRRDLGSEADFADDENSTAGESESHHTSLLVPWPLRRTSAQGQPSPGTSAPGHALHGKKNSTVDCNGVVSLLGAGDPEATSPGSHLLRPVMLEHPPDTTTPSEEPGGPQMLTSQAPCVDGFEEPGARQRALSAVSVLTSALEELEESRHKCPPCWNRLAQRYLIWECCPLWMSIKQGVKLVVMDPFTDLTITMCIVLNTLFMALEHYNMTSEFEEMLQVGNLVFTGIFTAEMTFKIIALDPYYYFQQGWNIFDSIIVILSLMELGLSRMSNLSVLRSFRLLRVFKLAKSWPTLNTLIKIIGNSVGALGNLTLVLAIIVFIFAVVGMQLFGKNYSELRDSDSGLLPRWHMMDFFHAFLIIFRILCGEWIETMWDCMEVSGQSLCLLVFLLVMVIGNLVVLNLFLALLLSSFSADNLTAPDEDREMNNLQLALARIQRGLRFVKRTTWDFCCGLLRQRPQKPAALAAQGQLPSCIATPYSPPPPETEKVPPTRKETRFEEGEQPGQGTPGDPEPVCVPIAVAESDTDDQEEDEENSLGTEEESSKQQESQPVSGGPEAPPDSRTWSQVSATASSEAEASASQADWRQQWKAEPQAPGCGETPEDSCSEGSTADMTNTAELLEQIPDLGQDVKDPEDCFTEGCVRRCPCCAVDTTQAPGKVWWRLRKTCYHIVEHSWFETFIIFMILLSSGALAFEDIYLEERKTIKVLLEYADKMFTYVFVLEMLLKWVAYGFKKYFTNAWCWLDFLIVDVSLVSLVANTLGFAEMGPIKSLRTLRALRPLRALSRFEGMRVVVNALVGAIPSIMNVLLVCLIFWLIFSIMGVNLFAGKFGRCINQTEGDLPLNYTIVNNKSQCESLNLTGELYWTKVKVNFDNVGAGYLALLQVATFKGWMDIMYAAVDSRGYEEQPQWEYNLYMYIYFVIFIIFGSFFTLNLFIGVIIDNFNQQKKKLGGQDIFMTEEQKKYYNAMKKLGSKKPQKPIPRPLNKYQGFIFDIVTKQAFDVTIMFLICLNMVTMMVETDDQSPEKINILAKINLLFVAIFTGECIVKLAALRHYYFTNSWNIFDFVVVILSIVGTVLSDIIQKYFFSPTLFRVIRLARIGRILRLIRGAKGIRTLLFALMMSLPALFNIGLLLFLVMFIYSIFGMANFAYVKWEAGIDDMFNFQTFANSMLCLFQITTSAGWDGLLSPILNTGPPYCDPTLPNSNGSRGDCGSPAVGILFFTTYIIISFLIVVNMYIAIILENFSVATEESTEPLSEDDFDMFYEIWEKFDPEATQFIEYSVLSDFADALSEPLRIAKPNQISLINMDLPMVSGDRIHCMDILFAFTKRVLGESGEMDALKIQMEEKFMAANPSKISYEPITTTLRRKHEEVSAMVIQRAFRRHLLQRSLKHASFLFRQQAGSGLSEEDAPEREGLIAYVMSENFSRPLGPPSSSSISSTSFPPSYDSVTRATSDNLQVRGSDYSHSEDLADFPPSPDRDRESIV

Row | SMILES | IC50 (hNav1.7 [1]) [nM] | IC50 (hNav1.5 [2]; [8]) [nM] | IC50 (hNav1.3 [3]; [9]) [nM] | IC50 (hNav1.7 [4]; Nav1.7 Use IC50) [nM] | IC50 (hNav1.3 [5]) [nM] | IC50 (hNav1.5 [6]) [nM] | IC50 (hNav1.7 [1]; [10]) [nM] | IC50 (hNav1.7 [4]; read-out: Nav1.7 Use IC50) [nM] | IC50 (hNav1.5 [2]; IWQ Use Nav1.5) [nM] | IC50 (hNav1.3 [3]) [nM] | locomotor activity in the open field analysis [7] | total basic movement [7, 11] | total fine movement [7, 11] | total rearing [7, 11] | total time rearing [7, 11]
1 | CC[C@H](C)[C@@H]1NC(=O)[C@@H]2CSSC[C@@H]3NC(=O)[C@H](C(C)C)NC(=O)[C@H](CC(C)C)NC(=O)[C@H](CC(N)=O)NC(=O)[C@@H]4CCCN4C(=O)[C@H](CCCNC(=N)N)NC(=O)[C@H](CSSC[C@H](NC(=O)[C@@H](N)Cc4cccc5ccccc45)C(=O)N[C@@H](CC(C)C)C(=O)NCC(=O)N[C@@H](Cc4ccccc4)C(=O)N[C@@H](CCSC)C(=O)N[C@@H](CCCNC(=N)N)C(=O)N[C@@H](CCCCN)C(=O)N2)NC(=O)[C@H](CSSC[C@@H](C(=O)N[C@@H](CCCCN)C(=O)N[C@@H](Cc2ccc(O)cc2)C(=O)N[C@H](C(=O)N[C@@H](Cc2ccccc2)C(N)=O)C(C)C)NC(=O)[C@H](Cc2c[nH]c4ccccc24)NC(=O)[C@H](CCCCN)NC(=O)[C@H](Cc2c[nH]cn2)NC(=O)[C@H]([C@@H](C)O)NC(=O)[C@H](CCCNC(=N)N)NC(=O)[C@H](CO)NC3=O)NC(=O)[C@H](CCCCN)NC(=O)[C@H](CC(=O)O)NC(=O)[C@H](CC(N)=O)NC(=O)[C@H](CC(=O)O)NC(=O)[C@@H]2CCCN2C1=O [SEQ ID NO: 77] (H-[1Nal]CLGFMRKCIPDNDKCCRPNLVCSRTHKWCKYVF-NH2; disulfide 2-17, 9-23, 16-30) | 110 | 13400 | 140 | 23 | 66 | 7600 |  |  |  |  |  |  |  |  | 
2 | CC[C@H](C)[C@@H]1NC(=O)[C@@H]2CSSC[C@@H]3NC(=O)[C@H](C(C)C)NC(=O)[C@H](CC(C)C)NC(=O)[C@H](CC(N)=O)NC(=O)[C@@H]4CCCN4C(=O)[C@H](CCCNC(=N)N)NC(=O)[C@H](CSSC[C@H](NC(=O)[C@@H](N)CC(=O)O)C(=O)N[C@@H](CC(C)C)C(=O)NCC(=O)N[C@@H](Cc4ccccc4)C(=O)N[C@@H](Cc4ccccc4)C(=O)N[C@@H](CCCNC(=N)N)C(=O)N[C@@H](CCCCN)C(=O)N2)NC(=O)[C@H](CSSC[C@@H](C(=O)N[C@@H](CCCCN)C(=O)N[C@@H](Cc2ccc(O)cc2)C(=O)N[C@H](C(=O)N[C@@H](Cc2ccccc2)C(N)=O)C(C)C)NC(=O)[C@H](Cc2c[nH]c4ccccc24)NC(=O)[C@H](CCCCN)NC(=O)[C@H](Cc2cnc[nH]2)NC(=O)[C@H]([C@@H](C)O)NC(=O)[C@H](CCCNC(=N)N)NC(=O)[C@H](CO)NC3=O)NC(=O)[C@H](CCCCN)NC(=O)[C@H](CC(=O)O)NC(=O)[C@H](CC(N)=O)NC(=O)[C@H](CC(=O)O)NC(=O)[C@@H]2CCCN2C1=O [SEQ ID NO: 89] (H-DCLGFFRKCIPDNDKCCRPNLVCSRTHKWCKYVF-NH2; disulfide 2-17, 9-23, 16-30) | 50 | 9210 | 30 | 15 | 16 | 3160 |  |  |  |  |  |  |  |  | 
3 | CCCC[C@@H]1NC(=O)[C@H](Cc2ccccc2)NC(=O)CNC(=O)[C@H](CC(C)C)NC(=O)[C@@H](NC(=O)[C@@H](N)CC(=O)O)CSSC[C@@H]2NC(=O)[C@@H]3CSSC[C@@H](C(=O)N[C@@H](CCCCN)C(=O)N[C@@H](Cc4ccc(O)cc4)C(=O)N[C@H](C(=O)N[C@@H](Cc4ccccc4)C(N)=O)C(C)C)NC(=O)[C@H](Cc4c[nH]c5ccccc45)NC(=O)[C@H](CCCCN)NC(=O)[C@H](Cc4c[nH]cn4)NC(=O)[C@H]([C@@H](C)O)NC(=O)[C@H](CCCNC(=N)N)NC(=O)[C@H](CO)NC(=O)[C@H](CSSC[C@H](NC(=O)[C@H](CCCCN)NC(=O)[C@H](CCCNC(=N)N)NC1=O)C(=O)N[C@@H]([C@@H](C)CC)C(=O)N1CCC[C@H]1C(=O)N[C@@H](CC(=O)O)C(=O)N[C@@H](CC(N)=O)C(=O)N[C@@H](CC(=O)O)C(=O)N[C@@H](CCCCN)C(=O)N3)NC(=O)[C@H](C(C)C)NC(=O)[C@H](CC(C)C)NC(=O)[C@H](CC(N)=O)NC(=O)[C@@H]1CCCN1C(=O)[C@H](CCCNC(=N)N)NC2=O [SEQ ID NO: 123] |  | 4500 | 20 |  | 9 | 1150 | 50 | 8 |  |  |  |  |  |  | 
4 | CC[C@H](C)[C@@H]1NC(=O)[C@@H]2CSSC[C@@H]3NC(=O)[C@H](C(C)C)NC(=O)[C@H](CC(C)C)NC(=O)[C@H](CC(N)=O)NC(=O)[C@@H]4CCCN4C(=O)[C@H](CCCNC(=N)N)NC(=O)[C@H](CSSC[C@H](NC(=O)[C@@H](N)CC(=O)O)C(=O)N[C@@H](CC(C)C)C(=O)NCC(=O)N[C@@H](Cc4ccccc4)C(=O)N[C@@H](Cc4cccc5ccccc45)C(=O)N[C@@H](CCCNC(=N)N)C(=O)N[C@@H](CCCCN)C(=O)N2)NC(=O)[C@H](CSSC[C@@H](C(=O)N[C@@H](CCCCN)C(=O)N[C@@H](Cc2ccc(O)cc2)C(=O)N[C@H](C(=O)N[C@@H](Cc2ccccc2)C(N)=O)C(C)C)NC(=O)[C@H](Cc2c[nH]c4ccccc24)NC(=O)[C@H](CCCCN)NC(=O)[C@H](Cc2c[nH]cn2)NC(=O)[C@H]([C@@H](C)O)NC(=O)[C@H](CCCNC(=N)N)NC(=O)[C@H](CO)NC3=O)NC(=O)[C@H](CCCCN)NC(=O)[C@H](CC(=O)O)NC(=O)[C@H](CC(N)=O)NC(=O)[C@H](CC(=O)O)NC(=O)[C@@H]2CCCN2C1=O [SEQ ID NO: 161] |  |  | 6 | 3 | 4 | 358 | 7 |  | 2340 |  |  |  |  |  | 
5 | CC[C@H](C)[C@@H]1NC(=O)[C@@H]2CSSC[C@@H]3NC(=O)[C@H](C(C)C)NC(=O)[C@H](CC(C)C)NC(=O)[C@H](CC(N)=O)NC(=O)[C@@H]4CCCN4C(=O)[C@H](CCCNC(=N)N)NC(=O)[C@H](CSSC[C@H](NC(=O)[C@@H](N)CC(=O)O)C(=O)N[C@@H](CC(C)C)C(=O)NCC(=O)N[C@@H](CC4CCCCC4)C(=O)N[C@@H](CCSC)C(=O)N[C@@H](CCCNC(=N)N)C(=O)N[C@@H](CCCCN)C(=O)N2)NC(=O)[C@H](CSSC[C@@H](C(=O)N[C@@H](CCCCN)C(=O)N[C@@H](Cc2ccc(O)cc2)C(=O)N[C@H](C(=O)N[C@@H](Cc2ccccc2)C(N)=O)C(C)C)NC(=O)[C@H](Cc2c[nH]c4ccccc24)NC(=O)[C@H](CCCCN)NC(=O)[C@H](Cc2cnc[nH]2)NC(=O)[C@H]([C@@H](C)O)NC(=O)[C@H](CCCNC(=N)N)NC(=O)[C@H](CO)NC3=O)NC(=O)[C@H](CCCCN)NC(=O)[C@H](CC(=O)O)NC(=O)[C@H](CC(N)=O)NC(=O)[C@H](CC(=O)O)NC(=O)[C@@H]2CCCN2C1=O [SEQ ID NO: 243] |  | 6990 |  | 3 | 7 | 3390 | 10 |  |  | 20 |  |  |  |  | 
6 | CC[C@H](C)[C@@H]1NC(=O)[C@@H]2CSSC[C@@H]3NC(=O)[C@H](C(C)C)NC(=O)[C@H](CC(C)C)NC(=O)[C@H](CC(N)=O)NC(=O)[C@@H]4CCCN4C(=O)[C@H](CCCNC(=N)N)NC(=O)[C@H](CSSC[C@H](NC(=O)[C@@H](N)CC(=O)O)C(=O)N[C@@H](CC(C)C)C(=O)NCC(=O)N[C@@H](Cc4ccccc4)C(=O)N[C@@H](CC4CCCCC4)C(=O)N[C@@H](CCCNC(=N)N)C(=O)N[C@@H](CCCCN)C(=O)N2)NC(=O)[C@H](CSSC[C@@H](C(=O)N[C@@H](CCCCN)C(=O)N[C@@H](Cc2ccc(O)cc2)C(=O)N[C@H](C(=O)N[C@@H](Cc2ccccc2)C(N)=O)C(C)C)NC(=O)[C@H](Cc2c[nH]c4ccccc24)NC(=O)[C@H](CCCCN)NC(=O)[C@H](Cc2cnc[nH]2)NC(=O)[C@H]([C@@H](C)O)NC(=O)[C@H](CCCNC(=N)N)NC(=O)[C@H](CO)NC3=O)NC(=O)[C@H](CCCCN)NC(=O)[C@H](CC(=O)O)NC(=O)[C@H](CC(N)=O)NC(=O)[C@H](CC(=O)O)NC(=O)[C@@H]2CCCN2C1=O [SEQ ID NO: 245] |  | 2370 |  | 3 | 2 | 2680 | 20 |  |  |  |  |  |  |  | 
7 | CC[C@H](C)[C@@H]1NC(=O)[C@@H]2CSSC[C@@H]3NC(=O)[C@H](C(C)C)NC(=O)[C@H](CC(C)C)NC(=O)[C@H](CC(N)=O)NC(=O)[C@@H]4CCCN4C(=O)[C@H](CCCNC(=N)N)NC(=O)[C@H](CSSC[C@H](NC(=O)[C@@H](N)CC(=O)O)C(=O)N[C@@H](CC(C)C)C(=O)NCC(=O)N[C@@H](Cc4ccccc4)C(=O)N[C@@H](CCSC)C(=O)N[C@@H](CCCNC(=N)N)C(=O)N[C@@H](CCCCN)C(=O)N2)NC(=O)[C@H](CSSC[C@@H](C(=O)N[C@@H](CCCCN)C(=O)N[C@@H](Cc2ccc(O)cc2)C(=O)N[C@H](C(=O)N[C@@H](Cc2ccccc2)C(N)=O)C(C)C)NC(=O)[C@H](Cc2c[nH]c4ccccc24)NC(=O)[C@H](CCC(=O)O)NC(=O)[C@H](Cc2cnc[nH]2)NC(=O)[C@H]([C@@H](C)O)NC(=O)[C@H](CCCNC(=N)N)NC(=O)[C@H](CO)NC3=O)NC(=O)[C@H](CCCCN)NC(=O)[C@H](CC(=O)O)NC(=O)[C@H](CC(N)=O)NC(=O)[C@H](CC(=O)O)NC(=O)[C@@H]2CCCN2C1=O [[Glu28]GpTx-1(1-34)] (H-DCLGFMRKCIPDNDKCCRPNLVCSRTHEWCKYVF-NH2; disulfide 2-17, 9-23, 16-30) |  |  |  |  |  |  |  |  |  |  | significantly reduced locomotor activity | significantly reduced | significantly reduced | significantly reduced | significantly reduced
